Measurements from US20240252581A1, “COMPOSITIONS AND METHODS FOR TREATING RESPIRATORY DISTRESS” (S.I.S. SHULOV INNOVATIVE SCIENCE LTD., priority 2021, published 2024).
Values joined by “and” are separate entries in the source; they are usually repeats but may differ in a detail not shown here. Equal values may be shown once. Square brackets hold non-standard residues; d marks the D form. Peptide text beside a SMILES is read from it. * marks the point of attachment. pGlu = O=C1CC[C@@H](C(=O)O)N1; Octanoyl = CCCCCCCC(=O)*

How the values were obtained:
[1] = determined daily during the study
Procedure: The effect of ZEP3Na administered intratracheally in a mice model of acute respiratory distress syndrome was evaluated. BALB/c mice were anaesthetized and orally intubated with a sterile plastic catheter and challenged with intratracheal instillation of 0.2 mg or 0.8 mg of LPS dissolved in 50 μL of PBS. Naïve mice (without LPS instillation) were injected with the same volume of saline to serve as controls. Six hours following LPS instillation, mice were administered intratracheally with ZEP3Na at two doses, namely 0.1 and 0.4 mg. The study was terminated 72 hours after LPS challenge to collect tissues for analysis.
Animal body weights were determined daily during the study.

[2] = tested on: inflammatory cytokines in BALF; assay: LPS-induced acute lung injury / ARDS mouse model: BALF cytokine concentrations (multiplex ELISA); type: in vivo, BALB/c mice; settings: BALF
Procedure: In order to test the efficacy of ZEP3 sodium on lung inflammation, the lipopolysaccharide (LPS)-induced acute lung injury model was used. In particular, LPS was administered intratracheally at doses of 10 or 40 mg/kg body weight (BW) corresponding to 0.2 or 0.8 mg/mouse, respectively.
ZEP3 sodium was administered by inhalation (INH) at doses of 25 or 250 mg/kg BW (0.5 or 5 mg/mouse, respectively), or intratracheally (IT) at doses of 5 or 20 mg/kg BW (0.1 or 0.4 mg/mouse, respectively) 6 hours after LPS administration and its effect was measured 72 hours following administration in the branchial alveolar fluid (BALF) using FACS instrumentation.
To detect cytokine release in lungs fluid, cytokine concentrations were assessed in BALF samples using high sensitivity multiplex ELISA assays for: IFN-γ, IL-1α, IL-5, IL-6, IL-10, IL-12 (p70), IL-17A, KC, MCP-1, TNF-α, IP-10, RANTES, G-CSF, MIP-1α and RANTES. ZEP3Na administered intratracheally at 0.1 and 0.4 mg per mouse after instillation of 0.2 mg LPS inhibited the concentration of following interleukins: IL-1α, IL-6, IL-10, IL-12, IL-17, KC, MCP-1, TNF-α and G-CSF.

[3] = Group 2: ZEP3Na 0.1 mg IT, no LPS, group mean
[4] = Group 2: ZEP3Na 0.1 mg IT, no LPS, individual mice
[5] = Group 3: ZEP3Na 0.4 mg IT, no LPS, group mean
[6] = Group 3: ZEP3Na 0.4 mg IT, no LPS, individual mice
[7] = Group 4: LPS 0.8 mg + ZEP3Na 0.1 mg IT, group mean
[8] = Group 4: LPS 0.8 mg + ZEP3Na 0.1 mg IT, individual mice
[9] = Group 5: LPS 0.8 mg + ZEP3Na 0.4 mg IT, group mean
[10] = Group 5: LPS 0.8 mg + ZEP3Na 0.4 mg IT, individual mice
[11] = Group 8: LPS 0.2 mg + ZEP3Na 0.1 mg IT, group mean
[12] = Group 8: LPS 0.2 mg + ZEP3Na 0.1 mg IT, individual mice
[13] = Group 9: LPS 0.2 mg + ZEP3Na 0.4 mg IT, group mean

CCCCCCCC(=O)NCCCC[C@H](NC(=O)[C@H](Cc1c[nH]c2ccccc12)NC(=O)[C@H](CC(N)=O)NC(=O)[C@@H]1CCC(=O)N1)C(=O)O [ZEP3Na, pGlu-Asn-Trp-Lys(Octanoyl)-ONa] ([pGlu]NWK(Octanoyl)-OH)
body weight [1]: No major changes | production of IL-12 and TNF-α ([2]; 0.8 mg LPS treated mice, 0.1 and 0.4 mg): significantly inhibited | G-CSF [2, 3]: 2.60 pg/mL | IL-12 (p70) [2, 3]: 7.31 pg/mL | IL-17A [2, 3]: 0.35 pg/mL | KC [2, 3]: 59.28 pg/mL | MCP-1 [2, 3]: 0.00 pg/mL | G-CSF [2, 4]: 2.37 pg/ml (2×) and 1.99 pg/ml (2×) and 5.06 pg/ml and 2.76 pg/ml (2×) and 3.53 pg/ml and 3.15 pg/ml | G-CSF (pg/ml) [2, 4]: undetected | IL-12 (p70) [2, 4]: 9.22 pg/ml (2×) and 9.10 pg/ml and 8.79 pg/ml (2×) and 7.39 pg/ml and 5.38 pg/ml and 4.32 pg/ml and 10.92 pg/ml | IL-12 (p70) (pg/ml) [2, 4]: undetected | IL-17A [2, 4]: 0.63 pg/mL and 2.12 pg/mL and 0.73 pg/mL | IL-17A (pg/ml) [2, 4]: undetected | KC [2, 4]: 46.08 pg/mL and 58.58 pg/mL and 58.91 pg/mL and 89.58 pg/mL and 95.87 pg/mL and 47.76 pg/mL and 43.47 pg/mL and 64.27 pg/mL and 42.44 pg/mL and 45.89 pg/mL | MCP-1 (pg/ml) [2, 4]: undetected | G-CSF [2, 5]: 3.26 pg/mL | IL-12 (p70) [2, 5]: 7.54 pg/mL | IL-17A [2, 5]: 1.26 pg/mL | KC [2, 5]: 70.95 pg/mL | MCP-1 [2, 5]: 4.89 pg/mL | G-CSF [2, 6]: 7.65 pg/ml and 3.47 pg/ml (2×) and 2.20 pg/ml (2×) and 6.40 pg/ml and 3.89 pg/ml | G-CSF (pg/ml) [2, 6]: undetected | IL-12 (p70) [2, 6]: 8.49 pg/ml (2×) and 7.27 pg/ml and 7.92 pg/ml and 5.27 pg/ml and 9.45 pg/ml and 7.21 pg/ml and 5.22 pg/ml and 8.54 pg/ml | IL-17A [2, 6]: 2.02 pg/ml and 1.13 pg/ml and 1.36 pg/ml and 1.47 pg/ml and 1.20 pg/ml (2×) and 1.06 pg/ml and 0.73 pg/ml and 1.14 pg/ml | KC [2, 6]: 56.01 pg/mL and 58.30 pg/mL and 63.33 pg/mL and 62.30 pg/mL and 71.12 pg/mL and 68.10 pg/mL and 52.39 pg/mL and 46.36 pg/mL and 160.65 pg/mL | MCP-1 [2, 6]: 11.53 pg/ml and 11.29 pg/ml (2×) and 9.93 pg/ml | MCP-1 (pg/ml) [2, 6]: undetected | G-CSF [2, 7]: 138.16 pg/mL | IL-12 (p70) [2, 7]: 124.09 pg/mL | IL-17A [2, 7]: 837.99 pg/mL | KC [2, 7]: 466.06 pg/mL | MCP-1 [2, 7]: 70.18 pg/mL | G-CSF [2, 8]: 250.42 pg/mL and 141.30 pg/mL and 164.43 pg/mL and 89.05 pg/mL and 416.35 pg/mL and 50.11 pg/mL and 131.80 pg/mL | G-CSF (pg/ml) [2, 8]: undetected | IL-12 (p70) [2, 8]: 6.33 pg/mL and 5.38 pg/mL and 235.43 pg/mL and 103.27 pg/mL and 192.86 pg/mL and 41.94 pg/mL and 414.83 pg/mL and 27.99 pg/mL and 88.80 pg/mL | IL-17A [2, 8]: 1287.47 pg/mL and 55.37 pg/mL and 719.90 pg/mL and 51.28 pg/mL and 5285.06 pg/mL and 77.04 pg/mL and 65.83 pg/mL | IL-17A (pg/ml) [2, 8]: undetected | KC [2, 8]: 39.18 pg/mL and 29.08 pg/mL and 847.35 pg/mL and 522.41 pg/mL and 798.01 pg/mL and 253.77 pg/mL and 831.88 pg/mL and 234.34 pg/mL and 638.49 pg/mL | MCP-1 [2, 8]: 70.21 pg/mL and 76.09 pg/mL and 93.90 pg/mL and 58.01 pg/mL and 114.01 pg/mL and 53.91 pg/mL and 165.51 pg/mL | MCP-1 (pg/ml) [2, 8]: undetected | G-CSF [2, 9]: 190.32 pg/mL | IL-12 (p70) [2, 9]: 102.59 pg/mL | IL-17A [2, 9]: 204.85 pg/mL | KC [2, 9]: 773.23 pg/mL | MCP-1 [2, 9]: 190.69 pg/mL | G-CSF [2, 10]: 491.06 pg/mL and 209.62 pg/mL and 268.52 pg/mL and 300.90 pg/mL and 7.65 pg/mL and 3.47 pg/mL and 124.37 pg/mL and 116.99 pg/mL | IL-12 (p70) [2, 10]: 7.58 pg/mL and 215.64 pg/mL and 368.44 pg/mL and 12.63 pg/mL and 7.60 pg/mL and 194.02 pg/mL and 14.83 pg/mL | IL-12 (p70) (pg/ml) [2, 10]: undetected | IL-17A [2, 10]: 7.23 pg/mL and 265.69 pg/mL and 1207.05 pg/mL and 13.05 pg/mL and 2.04 pg/mL and 0.52 pg/mL and 136.95 pg/mL and 6.24 pg/mL | KC [2, 10]: 1115.74 pg/mL and 1099.42 pg/mL and 1195.30 pg/mL and 488.61 pg/mL and 54.20 pg/mL and 57.06 pg/mL and 981.92 pg/mL and 1193.59 pg/mL | MCP-1 [2, 10]: 810.24 pg/mL and 166.84 pg/mL and 79.29 pg/mL and 307.60 pg/mL and 15.45 pg/mL and 83.52 pg/mL and 62.54 pg/mL | MCP-1 (pg/ml) [2, 10]: undetected | G-CSF [2, 11]: 187.95 pg/mL | IL-12 (p70) [2, 11]: 264.97 pg/mL | IL-17A [2, 11]: 724.27 pg/mL | KC [2, 11]: 1023.71 pg/mL | MCP-1 [2, 11]: 133.24 pg/mL | G-CSF [2, 12]: 175.22 pg/mL and 144.90 pg/mL and 109.99 pg/mL and 383.77 pg/mL and 239.49 pg/mL and 199.64 pg/mL and 249.05 pg/mL and 93.60 pg/mL and 177.33 pg/mL and 106.48 pg/mL | IL-12 (p70) [2, 12]: 247.16 pg/mL and 386.37 pg/mL and 66.34 pg/mL and 199.27 pg/mL and 322.18 pg/mL and 422.04 pg/mL and 317.94 pg/mL and 97.45 pg/mL and 202.28 pg/mL and 388.69 pg/mL | IL-17A [2, 12]: 553.70 pg/mL and 1615.14 pg/mL and 285.28 pg/mL and 1776.16 pg/mL and 862.84 pg/mL and 989.92 pg/mL and 458.49 pg/mL and 111.01 pg/mL and 281.41 pg/mL and 308.73 pg/mL | KC [2, 12]: 782.52 pg/mL and 1528.47 pg/mL and 503.00 pg/mL and 672.71 pg/mL and 1548.79 pg/mL and 1057.28 pg/mL and 1346.32 pg/mL and 808.21 pg/mL and 1086.03 pg/mL and 903.77 pg/mL | MCP-1 [2, 12]: 107.46 pg/mL and 158.19 pg/mL and 142.05 pg/mL and 85.01 pg/mL and 91.65 pg/mL and 135.00 pg/mL and 216.90 pg/mL and 114.81 pg/mL and 109.95 pg/mL and 171.38 pg/mL | G-CSF [2, 13]: 172.12 pg/mL | IL-12 (p70) [2, 13]: 161.01 pg/mL
